Paper PMC9983021, “Novel GluN2B-Selective NMDA Receptor Negative Allosteric Modulator Possesses Intrinsic Analgesic Properties and Enhances Analgesia of Morphine in a Rodent Tail Flick Pain Model” (ACS Chemical Neuroscience, 2023)

How the values were obtained:
GluN1/GluN2B = GluN1/GluN2B (Rattus norvegicus, UniProt P35439+Q00960)
GluN1/GluN2C = GluN1/GluN2C (Rattus norvegicus, UniProt P35439+Q00961)
[1] = agonist 100 µM glutamate, 30 µM glycine, mean ± SEM
[2] = read-out: Mean % Inhibition by 10 μM EU93-108

GluN1/GluN2B, sequence (Q00960 27-1482, other chains not shown): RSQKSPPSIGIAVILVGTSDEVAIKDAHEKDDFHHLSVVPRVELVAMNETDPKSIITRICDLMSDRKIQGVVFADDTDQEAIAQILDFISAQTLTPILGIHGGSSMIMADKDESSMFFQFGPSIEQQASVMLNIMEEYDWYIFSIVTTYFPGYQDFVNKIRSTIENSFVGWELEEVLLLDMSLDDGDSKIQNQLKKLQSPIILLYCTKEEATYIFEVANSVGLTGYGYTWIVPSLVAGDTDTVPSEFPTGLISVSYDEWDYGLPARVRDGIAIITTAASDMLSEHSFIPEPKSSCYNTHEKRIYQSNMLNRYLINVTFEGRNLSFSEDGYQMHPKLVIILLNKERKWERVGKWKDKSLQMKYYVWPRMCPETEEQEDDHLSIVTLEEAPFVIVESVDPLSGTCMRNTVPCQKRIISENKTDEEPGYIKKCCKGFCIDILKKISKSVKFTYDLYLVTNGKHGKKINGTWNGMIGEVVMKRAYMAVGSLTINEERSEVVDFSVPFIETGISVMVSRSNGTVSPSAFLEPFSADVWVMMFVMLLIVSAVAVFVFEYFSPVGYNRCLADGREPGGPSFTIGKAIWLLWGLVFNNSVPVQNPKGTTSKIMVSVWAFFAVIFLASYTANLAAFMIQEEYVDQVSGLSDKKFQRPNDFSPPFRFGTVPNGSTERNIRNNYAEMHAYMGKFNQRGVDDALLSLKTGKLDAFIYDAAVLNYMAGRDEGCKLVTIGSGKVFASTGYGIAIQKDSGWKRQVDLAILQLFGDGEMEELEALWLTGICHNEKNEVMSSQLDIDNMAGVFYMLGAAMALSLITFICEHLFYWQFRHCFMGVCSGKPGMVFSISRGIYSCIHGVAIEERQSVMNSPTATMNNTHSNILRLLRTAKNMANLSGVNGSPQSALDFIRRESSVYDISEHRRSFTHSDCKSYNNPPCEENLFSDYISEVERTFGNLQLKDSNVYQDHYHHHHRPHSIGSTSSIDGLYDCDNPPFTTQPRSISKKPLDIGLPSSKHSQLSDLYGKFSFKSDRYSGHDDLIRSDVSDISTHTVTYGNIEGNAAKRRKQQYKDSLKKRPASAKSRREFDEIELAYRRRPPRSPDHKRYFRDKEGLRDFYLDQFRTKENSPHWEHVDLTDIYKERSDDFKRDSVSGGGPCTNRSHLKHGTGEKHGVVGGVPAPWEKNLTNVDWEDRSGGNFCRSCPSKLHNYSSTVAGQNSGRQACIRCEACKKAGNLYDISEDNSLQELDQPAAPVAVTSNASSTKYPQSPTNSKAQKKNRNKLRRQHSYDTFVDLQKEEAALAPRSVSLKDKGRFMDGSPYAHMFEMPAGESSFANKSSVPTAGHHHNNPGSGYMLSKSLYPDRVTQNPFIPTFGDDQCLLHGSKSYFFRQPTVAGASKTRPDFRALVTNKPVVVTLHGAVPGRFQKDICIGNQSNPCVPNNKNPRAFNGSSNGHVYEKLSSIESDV
GluN1/GluN2C, sequence (Q00961 20-1237, other chains not shown): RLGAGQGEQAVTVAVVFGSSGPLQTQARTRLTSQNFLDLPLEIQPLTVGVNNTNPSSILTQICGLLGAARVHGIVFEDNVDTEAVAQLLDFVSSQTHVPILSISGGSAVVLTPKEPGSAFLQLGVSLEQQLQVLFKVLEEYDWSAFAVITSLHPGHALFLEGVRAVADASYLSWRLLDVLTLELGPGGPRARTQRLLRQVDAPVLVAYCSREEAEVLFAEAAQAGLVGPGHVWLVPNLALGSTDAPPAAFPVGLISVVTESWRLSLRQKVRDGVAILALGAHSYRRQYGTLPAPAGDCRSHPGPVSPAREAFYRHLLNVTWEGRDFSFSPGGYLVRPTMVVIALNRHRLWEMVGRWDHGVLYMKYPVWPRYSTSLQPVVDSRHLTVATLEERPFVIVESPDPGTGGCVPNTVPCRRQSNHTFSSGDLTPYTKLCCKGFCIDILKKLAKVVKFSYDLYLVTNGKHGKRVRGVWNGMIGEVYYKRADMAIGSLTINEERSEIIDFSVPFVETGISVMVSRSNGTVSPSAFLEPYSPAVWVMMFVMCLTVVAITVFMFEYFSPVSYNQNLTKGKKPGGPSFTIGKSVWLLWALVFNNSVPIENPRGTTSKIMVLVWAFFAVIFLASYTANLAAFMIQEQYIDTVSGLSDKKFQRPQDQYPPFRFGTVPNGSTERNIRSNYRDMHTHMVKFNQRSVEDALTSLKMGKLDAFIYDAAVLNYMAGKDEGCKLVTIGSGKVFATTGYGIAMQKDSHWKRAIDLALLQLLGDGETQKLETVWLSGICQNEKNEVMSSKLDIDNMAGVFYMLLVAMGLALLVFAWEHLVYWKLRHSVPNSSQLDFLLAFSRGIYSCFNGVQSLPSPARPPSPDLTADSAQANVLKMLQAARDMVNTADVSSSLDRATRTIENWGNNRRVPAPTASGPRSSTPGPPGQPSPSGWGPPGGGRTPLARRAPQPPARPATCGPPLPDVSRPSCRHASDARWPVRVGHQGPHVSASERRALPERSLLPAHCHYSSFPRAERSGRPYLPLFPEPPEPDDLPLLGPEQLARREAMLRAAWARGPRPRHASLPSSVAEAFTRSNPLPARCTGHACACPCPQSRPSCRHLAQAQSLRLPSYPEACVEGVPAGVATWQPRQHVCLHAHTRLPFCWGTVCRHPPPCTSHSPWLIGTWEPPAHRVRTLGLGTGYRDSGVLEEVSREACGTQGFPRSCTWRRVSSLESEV

CS(=O)(=O)Nc1ccc(OC[C@@H](O)CN2CCN(c3ccc(F)c(F)c3)CC2)cc1 [EU93-108, (S)-N-(4-(3-(4-(3,4-Difluorophenyl)piperazin-1-yl)-2-hydroxypropoxy)phenyl)methanesulfonamide]
% Control 10 µM EU93-108 (GluN1/GluN2B; [1]): 13.2 ± 6.1% | inhibition of GluN2B relative to the other NMDAR subunits (GluN1/GluN2B; at 10 μM): approximately 18 fold | inhibition at 10 µM (GluN1/GluN2B; [2]): 86.8 ± 6.1% | % Control 10 µM EU93-108 (GluN1/GluN2C; [1]): 97 ± 2.8% | inhibition at 10 µM (GluN1/GluN2C; [2]): 5.3 ± 2.2%
